Data from patent US8735406B2, “8-oxodihydropurine derivative” (Dainippon Sumitomo Pharma Co., Ltd., priority 2009, dated 2014).

Molecular target: T1, FAAH (Rattus norvegicus, UniProt P97612)
T1 construct: Preparation of Rat Brain Membranes Preparations (FAAH Enzyme Solution); from tissue; host or cells: rat cerebrum (brain membrane preparation)
T1 sequence (P97612 1-579): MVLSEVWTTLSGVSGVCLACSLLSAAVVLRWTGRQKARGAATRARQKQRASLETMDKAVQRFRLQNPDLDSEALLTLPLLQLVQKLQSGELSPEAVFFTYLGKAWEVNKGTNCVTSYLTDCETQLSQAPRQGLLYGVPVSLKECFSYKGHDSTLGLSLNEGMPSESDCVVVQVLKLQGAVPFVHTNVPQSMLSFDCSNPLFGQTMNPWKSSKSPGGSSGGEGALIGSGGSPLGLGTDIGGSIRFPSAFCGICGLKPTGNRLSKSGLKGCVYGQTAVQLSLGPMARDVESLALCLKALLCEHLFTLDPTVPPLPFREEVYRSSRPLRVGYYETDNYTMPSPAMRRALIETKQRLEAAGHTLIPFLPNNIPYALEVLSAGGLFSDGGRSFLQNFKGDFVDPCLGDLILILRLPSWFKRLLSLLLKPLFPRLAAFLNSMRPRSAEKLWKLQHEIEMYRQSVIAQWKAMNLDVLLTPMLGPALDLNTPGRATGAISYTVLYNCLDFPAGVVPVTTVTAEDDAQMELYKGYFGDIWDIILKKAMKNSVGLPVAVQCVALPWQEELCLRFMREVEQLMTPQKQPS
Test: Determination of FAAH inhibitory activity in rat (rat brain membrane preparations, [3H]-anandamide hydrolysis)
Assay type: biochemical
Details: rat brain membrane preparations; for inhibition at 0.1 µM: 100 nM test substance, read-out: FAAH Inhibition, Inhibition Rate at 100 nM; for IC50: test substance 0.1 nM to 1 μM, read-out: FAAH Inhibition IC50
Procedure, shortened: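 Rat cerebrum membranes (100 μg/mL protein) preincubated 10 min at 37 °C with compound (1% DMSO) in pH 7.6 Tris buffer with 1.5% BSA. Substrate 2 nM [3H]-anandamide plus 2 μM anandamide added for 10 min at 37 °C. [3H]-ethanolamine in the aqueous phase after chloroform/methanol extraction was scintillation counted; IC50 over 0.1 nM–1 μM.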

Structure (SMILES)	inhibition at 0.1 µM [%]	IC50 [nM]
Cn1c(=O)n(C(=O)N2CCCC2)c2nc(-c3ccccc3)ncc21 [Example 224, 7-Methyl-2-phenyl-9-(pyrrolidin-1-ylcarbonyl)-7,9-dihydro-8H-purine-8-one]	91	53
Cn1c(=O)n(C(=O)N2CCCC2)c2nc(-c3ccc(F)cc3)ncc21 [Example 227, 2-(4-Fluorophenyl)-7-methyl-9-(pyrrolidin-1-ylcarbonyl)-7,9-dihydro-8H-purine-8-one]	97	34
Cc1cccc(-c2ncc3c(n2)n(C(=O)N2CCCC2)c(=O)n3C)c1 [Example 228, 7-Methyl-2-(3-methylphenyl)-9-(pyrrolidin-1-ylcarbonyl)-7,9-dihydro-8H-purine-8-one]	99	31
Cc1ccc(-c2ncc3c(n2)n(C(=O)N2CCCC2)c(=O)n3C)cc1 [Example 229, 7-Methyl-2-(4-methylphenyl)-9-(pyrrolidin-1-ylcarbonyl)-7,9-dihydro-8H-purine-8-one]	90	53
COc1cccc(-c2ncc3c(n2)n(C(=O)N2CCCC2)c(=O)n3C)c1 [Example 230, 2-(3-Methoxyphenyl)-7-methyl-9-(pyrrolidin-1-ylcarbonyl)-7,9-dihydro-8H-purine-8-one]	94	44
COc1ccc(-c2ncc3c(n2)n(C(=O)N2CCCC2)c(=O)n3C)cc1 [Example 231, 2-(4-Methoxyphenyl)-7-methyl-9-(pyrrolidin-1-ylcarbonyl)-7,9-dihydro-8H-purine-8-one]	91	51
CCOc1ccc(-c2ncc3c(n2)n(C(=O)N2CCCC2)c(=O)n3C)cc1 [Example 233, 2-(4-Ethoxyphenyl)-7-methyl-9-(pyrrolidin-1-ylcarbonyl)-7,9-dihydro-8H-purine-8-one]	97	40
Cn1c(=O)n(C(=O)N2CCCC2)c2nc(-c3ccc(C(F)(F)F)cc3)ncc21 [Example 235, 7-Methyl-9-(pyrrolidin-1-ylcarbonyl)-2-[4-(trifluoromethyl)phenyl]-7,9-dihydro-8H-purine-8-one]	98	39
Cn1c(=O)n(C(=O)N2CCCC2)c2nc(-c3ccc(OC(F)(F)F)cc3)ncc21 [Example 237, 7-Methyl-9-(pyrrolidin-1-ylcarbonyl)-2-[4-(trifluoromethoxy)phenyl]-7,9-dihydro-8H-purine-8-one]	98	32
CC(=O)c1cccc(-c2ncc3c(n2)n(C(=O)N2CCCC2)c(=O)n3C)c1 [Example 238, 2-(3-Acetylphenyl)-7-methyl-9-(pyrrolidin-1-ylcarbonyl)-7,9-dihydro-8H-purine-8-one]	84	58
Cn1c(=O)n(C(=O)N2CCCC2)c2nc(-c3ccc(-c4ccccc4)cc3)ncc21 [Example 239, 2-(Biphenyl-4-yl)-7-methyl-9-(pyrrolidin-1-ylcarbonyl)-7,9-dihydro-8H-purine-8-one]	89	52
Cn1c(=O)n(C(=O)N2CCCC2)c2nc(/C=C/c3ccccc3)ncc21 [Example 241, 7-Methyl-2-[(E)-2-phenylethenyl]-9-(pyrrolidin-1-ylcarbonyl)-7,9-dihydro-8H-purine-8-one]	94	43
Cn1c(=O)n(C(=O)N2CCCC2)c2nc(/C=C/c3ccc(F)cc3)ncc21 [Example 245, 2-[(E)-2-(4-Fluorophenyl)ethenyl]-7-methyl-9-(pyrrolidin-1-ylcarbonyl)-7,9-dihydro-8H-purine-8-one]	80	58
COc1cccc(/C=C/c2ncc3c(n2)n(C(=O)N2CCCC2)c(=O)n3C)c1 [Example 247, 2-[(E)-2-(3-Methoxyphenyl)ethenyl]-7-methyl-9-(pyrrolidin-1-ylcarbonyl)-7,9-dihydro-8H-purine-8-one]	97	39

These reach a lower IC50. Values come first.

inhibition at 0.1 µM [%]	IC50 [nM]	Structure (SMILES)
100	5	Cn1c(=O)n(C(=O)N2CCCC2)c2cnc(-c3ccncc3)nc21 [Example 213, 9-Methyl-2-(pyridin-4-yl)-7-(pyrrolidin-1-ylcarbonyl)-7,9-dihydro-8H-purine-8-one]
99	18	Cn1c(=O)n(C(=O)N2CCCC2)c2cnc(-c3ccnc(Cl)c3)nc21 [Example 214, 2-(2-Chloropyridin-4-yl)-9-methyl-7-(pyrrolidin-1-ylcarbonyl)-7,9-dihydro-8H-purine-8-one]
98	10	Cn1c(=O)n(C(=O)N2CCCC2)c2cnc(-c3ccnc(F)c3)nc21 [Example 215, 2-(2-Fluoropyridin-4-yl)-9-methyl-7-(pyrrolidin-1-ylcarbonyl)-7,9-dihydro-8H-purine-8-one]
99	7	Cn1c(=O)n(C(=O)N2CCCC2)c2cnc(-c3cc4ccccc4o3)nc21 [Example 216]
99	27	C/C=C/c1ncc2c(n1)n(C)c(=O)n2C(=O)N1CCCC1 [Example 217]
95	25	Cn1c(=O)n(C(=O)N2CCCC2)c2cnc(C3=CCCCC3)nc21 [Example 218, 2-(cyclohexen-1-yl)-9-methyl-7-(pyrrolidin-1-ylcarbonyl)-7,9-dihydro-8H-purine-8-one]
96	9	CCN(C)C(=O)n1c(=O)n(C)c2nc(-c3cccnc3)ncc21 [Example 219, N-Ethyl-N,9-dimethyl-8-oxo-2-(pyridin-3-yl)-8,9-dihydro-7H-purine-7-carboxamide]
105	7	CCN(C)C(=O)n1c(=O)n(C)c2nc(-c3ccncc3)ncc21 [Example 220, N-Ethyl-N,9-dimethyl-8-oxo-2-(pyridin-4-yl)-8,9-dihydro-7H-purine-7-carboxamide]
100	4	CCN(C)C(=O)n1c(=O)n(C)c2nc(-c3ccnc(F)c3)ncc21 [Example 221, N-Ethyl-2-(2-fluoropyridin-4-yl)-N,9-dimethyl-8-oxo-8,9-dihydro-7H-purine-7-carboxamide]
99	< 1	CN(CCc1ccc(Cl)cc1)C(=O)n1c(=O)n(C)c2nc(-c3ccnc(F)c3)ncc21 [Example 222, N-[2-(4-Chlorophenyl)ethyl]-2-(2-fluoropyridin-4-yl)-N,9-dimethyl-8-oxo-8,9-dihydro-7H-purine-7-carboxamide]
105	< 1	CN(CCC1CCCCC1)C(=O)n1c(=O)n(C)c2nc(-c3ccncc3)ncc21 [Example 223, N-(2-Cyclohexylethyl)-N,9-dimethyl-8-oxo-2-(pyridin-4-yl)-8,9-dihydro-7H-purine-7-carboxamide]
99	27	Cn1c(=O)n(C(=O)N2CCCC2)c2nc(-c3cccc(F)c3)ncc21 [Example 226, 2-(3-Fluorophenyl)-7-methyl-9-(pyrrolidin-1-ylcarbonyl)-7,9-dihydro-8H-purine-8-one]
101	20	CCOc1cccc(-c2ncc3c(n2)n(C(=O)N2CCCC2)c(=O)n3C)c1 [Example 232, 2-(3-ethoxyphenyl)-7-methyl-9-(pyrrolidin-1-ylcarbonyl)-7,9-dihydro-8H-purine-8-one]
100	9	Cn1c(=O)n(C(=O)N2CCCC2)c2nc(-c3cccc(C(F)(F)F)c3)ncc21 [Example 234, 7-Methyl-9-(pyrrolidin-1-ylcarbonyl)-2-[3-(trifluoromethyl)phenyl]-7,9-dihydro-8H-purine-8-one]
100	6	Cn1c(=O)n(C(=O)N2CCCC2)c2nc(-c3cccc(OC(F)(F)F)c3)ncc21 [Example 236, 7-Methyl-9-(pyrrolidin-1-ylcarbonyl)-2-[3-(trifluoromethoxy)phenyl]-7,9-dihydro-8H-purine-8-one]
89	5	Cn1c(=O)n(C(=O)N2CCCC2)c2nc(/C=C/c3ccc(C(F)(F)F)cc3)ncc21 [Example 243, 7-methyl-9-(pyrrolidin-1-ylcarbonyl)-2-{(E)-2-[4-(trifluoromethyl)phenyl]ethenyl}-7,9-dihydro-8H-purine-8-one]
86	11	Cn1c(=O)n(C(=O)N2CCCC2)c2nc(/C=C/c3cccc(C(F)(F)F)c3)ncc21 [Example 244, 7-Methyl-9-(pyrrolidin-1-ylcarbonyl)-2-{(E)-2-[3-(trifluoromethyl)phenyl]ethenyl}-7,9-dihydro-8H-purine-8-one]
98	23	Cn1c(=O)n(C(=O)N2CCCC2)c2nc(/C=C/c3cccc(F)c3)ncc21 [Example 246, 2-[(E)-2-(3-Fluorophenyl)ethenyl]-7-methyl-9-(pyrrolidin-1-ylcarbonyl)-7,9-dihydro-8H-purine-8-one]
